# In US20080312192A1, “Diaryl Urea Derivatives in the Treatment of Protein Kinase Dependent Diseases” (priority 2003, published 2008):
# Counter-ions that a name gives are not always drawn.
# Molecular target: T1, Flt-3 (Homo sapiens, UniProt P36888)
# T1 construct: amino acids 563-993 of the cytoplasmic kinase domain of human Flt-3; made in house; host or cells: Sf9 insect cells (baculovirus, vector pFbacG01)
# T1 sequence (P36888 563-993): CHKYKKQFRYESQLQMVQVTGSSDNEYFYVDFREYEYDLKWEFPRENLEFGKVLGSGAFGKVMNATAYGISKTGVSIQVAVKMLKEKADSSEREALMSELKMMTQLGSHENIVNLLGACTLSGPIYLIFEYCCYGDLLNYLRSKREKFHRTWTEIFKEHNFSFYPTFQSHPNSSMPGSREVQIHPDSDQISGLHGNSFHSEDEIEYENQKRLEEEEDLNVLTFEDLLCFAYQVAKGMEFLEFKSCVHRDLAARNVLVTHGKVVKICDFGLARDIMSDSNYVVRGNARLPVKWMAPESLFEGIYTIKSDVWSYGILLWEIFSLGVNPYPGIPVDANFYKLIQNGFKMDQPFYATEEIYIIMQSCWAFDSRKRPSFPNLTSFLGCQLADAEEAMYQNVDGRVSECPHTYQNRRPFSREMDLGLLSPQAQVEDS
# Assay: Flt-3 kinase inhibition (GST-Flt-3, 33P incorporation into poly(Glu,Tyr))
# Format: biochemical
# Procedure: Flt-3 kinase inhibition is determined as follows: The baculovirus donor vector pFbacG01 (GIBCO) is used to generate a recombinant baculovirus expressing the amino acid region amino acids 563-993 of the cytoplasmic kinase domain of human Flt-3. The coding sequence for the cytoplasmic domain of Flt-3 is amplified by PCR from human c-DNA libraries (Clontech). The amplified DNA fragments and the pFbacG01 vector are made compatible for ligation by digestion with BamHI and HindIII. Ligation of these DNA fragments results in the baculovirus donor plasmid pFbacG01-Flt-3. The production of the viruses, the expression of proteins in Sf9 cells and the purification of the GST-fused proteins are performed as follows:
# Production of virus: The baculovirus donor plasmid (pFbacG01-Flt-3) containing the Flt-3 kinase domain is transfected into the DH10Bac cell line (GIBCO) and the transfected cells are plated on selective agar plates. Colonies without insertion of the fusion sequence into the viral genome (carried by the bacteria) are blue. Single white colonies are picked and viral DNA (bacmid) is isolated from the bacteria by standard plasmid purification procedures. Sf9 or Sf21 cells (American Type Culture Collection) are then transfected in flasks with the viral DNA using Cellfectin reagent.
# Protein expression in Sf9 cells: Virus containing media is collected from the transfected cell culture and used for infection to increase its titre. Virus containing media obtained after two rounds of infection is used for large-scale protein expression. For large-scale protein expression 100 cm^2 round tissue culture plates are seeded with 5×10^7 cells/plate and infected with 1 mL of virus-containing media (approx. 5 MOIs). After 3 days the cells are scraped off the plate and centrifuged at 500 rpm for 5 min. Cell pellets from 10-20, 100 cm^2 plates are resuspended in 50 mL of ice-cold lysis buffer (25 mM Tris-HCl, pH 7.5, 2 mM EDTA-1% NP-40. 1 mM DTT, 1 mM PMSF). The cells are stirred on ice for 15 min and then centrifuged at 5000 rpms for 20 min.
# Purification of GST-tagged protein: The centrifuged cell lysate is loaded onto a 2 mL glutathione-sepharose column (Pharmacia) and washed three times with 10 mL of 25 mM Tris-HCl, pH 7.5, 2 mM EDTA, 1 mM DTT, 200 mM NaCl. The GST-tagged protein is then eluted by 10 applications (1 mL each) of 25 mM Tris-HCl, pH 7.5, 10 mM reduced-glutathione, 100 mM NaCl, 1 mM DTT, 10% Glycerol and stored at −70° C.
# Measurement of enzyme activity: Tyrosine protein kinase assays with purified GST-Flt-3 protein are carried out in a final volume of 30 μL containing 200-1800 ng of enzyme protein (depending on the specific activity), 20 mM Tris-HCl, pH 7.6, 3 mM MnCl2, 3 mM MgCl2, 1 mM DTT, 10 μM Na3VO4, 3 μg/mL poly(Glu, Tyr) 4:1, 1% DMSO, 8.0 μM ATP and 0.1 μCi [γ^33 P] ATP. The activity is assayed in the presence or absence of inhibitors, by measuring the incorporation of ^33P from [γ^33P] ATP into the poly(Glu,Tyr) substrate. The assay (30 μL) is carried out in 96-well plates at ambient temperature for 20 min and terminated by the addition of 20 μL of 125 mM EDTA. Subsequently, 40 μL of the reaction mixture is transferred onto Immobilon-PVDF membrane (Millipore, Bedford, Mass., USA) previously soaked for 5 min with methanol, rinsed with water, then soaked for 5 min with 0.5% H3PO4 and mounted on vacuum manifold with disconnected vacuum source. After spotting all samples, vacuum is connected and each well rinsed with 200 μL 0.5% H3PO4. Membranes are removed and washed 4× on a shaker with 1.0% H3PO4, once with ethanol. Membranes are counted after drying at ambient temperature, mounting in Packard TopCount 96-well frame, and addition of 10 μL/well of Microscint™ (Packard). IC50 values are calculated by linear regression analysis of the percentage inhibition of each compound in duplicate, at four concentrations (usually 0.01, 0.1, 1 and 10 μM). One unit of protein kinase activity is defined as 1 nmole of ^33P transferred from [γ3P] […]
row,SMILES,IC50 [nM]
1,"CNC(=O)c1cc(NC(=O)Nc2ccc(Oc3cc(N)ncn3)cc2)cc(C(F)(F)F)c1 [Example 43, 3-{3-[4-(6-Amino-pyrimidin-4-yloxy)-phenyl]-ureido}-N-methyl-5-trifluoromethyl-benzamide]",160
2,Cc1nccn1Cc1ccc(NC(=O)Nc2ccc(Oc3cc(N)ncn3)cc2)cc1C(F)(F)F [Example 34e.3],79
3,CCN1CCN(Cc2ccc(NC(=O)Nc3ccc(Oc4ccnc(NC)n4)cc3)cc2)CC1 [Example 51e.2],910
4,CC(C)(C)CN1CCN(c2ccc(NC(=O)Nc3ccc(Oc4cc(N)ncn4)cc3)cc2C(F)(F)F)CC1 [Example 34u.2],1500
5,CCN(CC)Cc1ccc(NC(=O)Nc2ccc(Oc3cc(NC)ncn3)cc2)cc1C(F)(F)F [Example 34m.1],400
6,CNc1cc(Oc2ccc(NC(=O)Nc3ccc(CN4CCC4)c(C(F)(F)F)c3)cc2)ncn1 [Example 34b.1],360
7,O=C(Nc1ccc(Oc2cc(NC3CCC(O)CC3)ncn2)cc1)Nc1ccc(N2CCOCC2)c(C(F)(F)F)c1 (stereo not drawn) [Example 55d],970
8,Cc1nccn1Cc1ccc(NC(=O)Nc2ccc(Oc3ccnc(N)n3)cc2)cc1C(F)(F)F [Example 51b.1],130
9,CN(Cc1ccc(NC(=O)Nc2ccc(Oc3cc(N)ncn3)cc2)cc1C(F)(F)F)C(C)(C)C [Example 34a.3],830
10,Nc1cc(Oc2ccc(NC(=O)Nc3ccc(CN4CCCC4)c(C(F)(F)F)c3)cc2)ncn1 [Example 34j.3],283
11,CNc1cc(Oc2ccc(NC(=O)Nc3ccc(CN4CCN(Cc5ccc(OC)cc5)CC4)c(C(F)(F)F)c3)cc2)ncn1 [Example 34p.1],590
12,"CNc1cc(Oc2ccc(NC(=O)Nc3cc(CN4CCC4)cc(C(F)(F)F)c3)cc2)ncn1 [Example 2, N-[4-(6-Methylamino-pyrimidin-4-yloxy)-phenyl]-N′-(3-azetidin-1-ylmethyl-5-trifluoromethyl-phenyl)-urea]",1200
13,"CNc1nccc(Oc2ccc(NC(=O)Nc3ccc(CN(C)C)c(C(F)(F)F)c3)cc2)n1 [Example 48, N-[4-(2-Methylamino-pyrimidin-4-yloxy)-phenyl]-N′-[4-(4-dimethylamino-methyl) 3-trifluoromethyl-phenyl]-urea]",580
14,Nc1nccc(Oc2ccc(NC(=O)Nc3cccc(C(F)(F)F)c3)cc2)n1 [Example 52b],80
15,CNc1cc(Oc2ccc(NC(=O)Nc3ccc(CN(C)C)c(C(F)(F)F)c3)cc2)ncn1 [Example 34l.1],620
16,"CNc1cc(Oc2ccc(NC(=O)Nc3ccc(CN4CCN(C(C)C)CC4)c(C(F)(F)F)c3)cc2)ncn1 [Example 16, N-[4-(6-Methylamino-pyrimidin-4-yloxy)-phenyl]-N′-[4-(4-isopropylpiperazin-1-ylmethyl)-3-trifluoromethyl-phenyl]-urea trifluoroacetate]",360
17,"CC(C)N1CCN(Cc2cc(NC(=O)Nc3ccc(Oc4cc(N)ncn4)cc3)cc(C(F)(F)F)c2)CC1 [Example 8, N-[4-(6-Amino-pyrimidin-4-yloxy)-phenyl]-N′-[3-(4-isopropylpiperazin-1-ylmethyl)-5-trifluoromethyl-phenyl]-urea]",510
18,CNc1cc(Oc2ccc(NC(=O)Nc3ccc(CN4CCN(C(C)(C)C)CC4)c(C(F)(F)F)c3)cc2)ncn1 [Example 34c.1],540

row,SMILES,IC50 [nM]
1,COc1cccc(Nc2cc(Oc3ccc(NC(=O)Nc4ccc(N5CCOCC5)c(C(F)(F)F)c4)cc3)ncn2)c1 [Example 55c],370
2,CNc1cc(Oc2ccc(NC(=O)Nc3ccc(CN4CCOCC4)c(C(F)(F)F)c3)cc2)ncn1 [Example 34k.1],130
3,"CNC(=O)c1cc(NC(=O)Nc2ccc(Oc3cc(NC)ncn3)cc2)cc(C(F)(F)F)c1 [Example 41, 3-{3-[4-(6-Methylamino-pyrimidin-4-yloxy)-phenyl]-ureido}-N-methyl-5-trifluoromethyl-benzamide]",420
4,CNc1cc(Oc2ccc(NC(=O)Nc3ccc(CN4CCCC4)c(C(F)(F)F)c3)cc2)ncn1 [Example 34j.1],250
5,Nc1cc(Oc2ccc(NC(=O)Nc3ccc(CN4CCC4)c(C(F)(F)F)c3)cc2)ncn1 [Example 34b.3],370
6,"NC(=O)c1cc(NC(=O)Nc2ccc(Oc3cc(N)ncn3)cc2)cc(C(F)(F)F)c1 [Example 38, 3-{3-[4-(6-Amino-pyrimidin-4-yloxy)-phenyl]-ureido}-5-trifluoromethyl-benzamide]",354
7,"CN(Cc1ccc(NC(=O)Nc2ccc(Oc3cc(Cl)ncn3)cc2)cc1C(F)(F)F)C(C)(C)C [Example 21, N-[4-(6-Chloro-pyrimidin-4-yloxy)-phenyl]-N′-[4-(methyl-^tertbutyl-amino-methyl)-3-trifluoromethyl-phenyl]-urea]",1800
8,"CC(C)N1CCN(Cc2ccc(NC(=O)Nc3ccc(Oc4cc(Cl)ncn4)cc3)cc2C(F)(F)F)CC1 [Example 15, N-[4-(6-Chloro-pyrimidin-4-yloxy)-phenyl]-N′-[4-(4-isopropylpiperazin-1-ylmethyl)-3-trifluoromethyl-phenyl]-urea]",600
9,CC(C)(C)N1CCN(Cc2ccc(NC(=O)Nc3ccc(Oc4cc(N)ncn4)cc3)cc2C(F)(F)F)CC1 [Example 34c.3],350
10,Nc1cc(Oc2ccc(NC(=O)Nc3ccc(CN4CCOCC4)c(C(F)(F)F)c3)cc2)ncn1 [Example 34k.3],100
11,"Nc1cc(Oc2ccc(NC(=O)Nc3ccc(-c4ccccn4)c(C(F)(F)F)c3)cc2)ncn1 [Example 57, 1-[4-(6-Amino-pyrimidin-4-yloxy)-phenyl]-3-(4-pyridin-2-yl-3-trifluoromethyl-phenyl)-urea]",118
12,CC(C)(C)CN1CCN(Cc2ccc(NC(=O)Nc3ccc(Oc4cc(N)ncn4)cc3)cc2C(F)(F)F)CC1 [Example 34t.2],290
13,CCN(CC)Cc1ccc(NC(=O)Nc2ccc(Oc3cc(N)ncn3)cc2)cc1C(F)(F)F [Example 34m.3],200
14,CCN1CCN(Cc2ccc(NC(=O)Nc3ccc(Oc4ccnc(N)n4)cc3)cc2)CC1 [Example 51e.1],250
15,"CNc1cc(Oc2ccc(NC(=O)Nc3ccc(CN4CC[N+]([O-])(C(C)C)CC4)c(C(F)(F)F)c3)cc2)ncn1 [Example 17, N-[4-(6-Methylamino-pyrimidin-4-yloxy)-phenyl]-N′-[4-(4-isopropyl-4-oxy-piperazin-1-ylmethyl)-3-trifluoromethyl-phenyl]-urea trifluoroacetate]",940
16,CNc1nccc(Oc2ccc(NC(=O)Nc3ccc(Cn4ccnc4C)c(C(F)(F)F)c3)cc2)n1 [Example 51b.2],170
17,Nc1cc(Oc2ccc(NC(=O)Nc3ccc(N4CCC(N5CCCCC5)CC4)c(C(F)(F)F)c3)cc2)ncn1 [Example 34s.2],240
18,CCN1CCN(Cc2ccc(NC(=O)Nc3ccc(Oc4cc(NC)ncn4)cc3)cc2C)CC1 [Example 34g.1],300
